Measurements from ChEMBL document CHEMBL5226286, “The application of isatin-based multicomponent-reactions in the quest for new bioactive and druglike molecules” (Eur J Med Chem, 2021).
pIC50: −log10 of the molar value. In brackets after ≈: the same amount, converted by molar mass.

Tests used:
[1] = test system: Staphylococcus aureus; assay: microbe, parasite or virus in culture
[2] = test system: Bacillus subtilis; assay: Antibacterial activity against Bacillus subtilis; assay type: functional
[3] = test system: Aspergillus niger; assay: Antifungal activity against Aspergillus niger assessed as zone of inhibition at 25 ug/ml; assay type: functional; settings: read-out: DIZ
[4] = test system: Candida metapsilosis; assay: Antifungal activity against Candida metapsilosis assessed as zone of inhibition at 25 ug/ml; assay type: functional; settings: Lodderomyces metapsilosis, read-out: DIZ
[5] = molecular target: Acetylcholinesterase (Homo sapiens, UniProt P22303); assay: Inhibition of AChE (unknown origin)
[6] = molecular target: Cholinesterase (Homo sapiens, UniProt P06276); assay: Inhibition of BChE (unknown origin)
[7] = test system: Staphylococcus aureus; assay: Antibacterial activity against Staphylococcus aureus ATCC 25923; assay type: functional
[8] = test system: Staphylococcus epidermidis; assay: Antibacterial activity against Staphylococcus epidermidis ATCC 12228; assay type: functional
[9] = test system: Pseudomonas aeruginosa; assay: Antibacterial activity against Pseudomonas aeruginosa ATCC 85327; assay type: functional
[10] = test system: Klebsiella pneumoniae; assay: Antibacterial activity against Klebsiella pneumoniae ATCC 29655; assay type: functional
[11] = test system: Enterococcus faecalis; assay: Antibacterial activity against Enterococcus faecalis ATCC 29737; assay type: functional
[12] = test system: Streptococcus mutans; assay: Antibacterial activity against Streptococcus mutans PTCC 1601; assay type: functional
[13] = test system: Bacillus pumilus; assay: Antibacterial activity against Bacillus pumilus PTCC 1114; assay type: functional
[14] = test system: Bacillus subtilis; assay: Antibacterial activity against Bacillus subtilis ATCC 465; assay type: functional
[15] = test system: Micrococcus luteus; assay: Antibacterial activity against Micrococcus luteus PTCC 1110; assay type: functional
[16] = test system: Escherichia coli; assay: Antimicrobial activity against Escherichia coli ATCC 25922; assay type: functional
[17] = test system: Candida tropicalis; assay: Antifungal activity against Candida tropicalis; assay type: functional
[18] = test system: Candida albicans; assay: Antifungal activity against Candida albicans; assay type: functional
[19] = test system: Nakaseomyces glabratus; assay: Antifungal activity against Candida glabrata; assay type: functional
[20] = test system: Syncephalastrum racemosum; assay: Antifungal activity against Syncephalastrum racemosum RCMB 05922 assessed as zone of inhibition; assay type: functional
[21] = test system: Candida albicans; assay: Antifungal activity against Candida albicans RCMB 05036 assessed as zone of inhibition; assay type: functional
[22] = test system: Geotrichum candidum; assay: Antifungal activity against Geotrichum candidum RCMB 05097 assessed as zone of inhibition; assay type: functional
[23] = test system: Aspergillus fumigatus; assay: Antifungal activity against Aspergillus fumigatus RCMB 02568 assessed as zone of inhibition; assay type: functional
[24] = test system: Aspergillus flavus; assay: Antifungal activity against Aspergillus flavus; assay type: functional
[25] = test system: Aspergillus niger; assay: Antifungal activity against Aspergillus niger; assay type: functional
[26] = test system: MDA-MB-231; assay: Antiproliferative activity against human MDA-MB-231 cells by MTT reduction assay; assay type: functional, cell-based
[27] = test system: MCF7; assay: Antiproliferative activity against human MCF7 cells by MTT reduction assay; assay type: functional, cell-based
[28] = test system: T47D; assay: Antiproliferative activity against human T47D cells by MTT reduction assay; assay type: functional, cell-based
[29] = test system: K562; assay: Anticancer activity against human K562 cells by MTT assay; assay type: functional, cell-based
[30] = test system: A549; assay: Anticancer activity against human A549 cells by MTT assay; assay type: functional, cell-based
[31] = test system: MDA-MB-435; assay: Antiproliferative activity against human MDA-MB-435 cells; assay type: functional, cell-based
[32] = test system: Pseudomonas aeruginosa; assay: Antibacterial activity against multidrug resistant Pseudomonas aeruginosa 025; assay type: functional
[33] = test system: Pseudomonas aeruginosa; assay: Antibacterial activity against multidrug resistant Pseudomonas aeruginosa 034; assay type: functional
[34] = test system: Bacillus subtilis; assay: Antibacterial activity against Bacillus subtilis by agar well diffusion method; assay type: functional
[35] = test system: Escherichia coli; assay: Antibacterial activity against Escherichia coli by disc diffusion method; assay type: functional
[36] = test system: Staphylococcus aureus; assay: Antibacterial activity against Staphylococcus aureus by disc diffusion method; assay type: functional
[37] = test system: Pseudomonas aeruginosa; assay: Antibacterial activity against Pseudomonas aeruginosa NCIM 5029 by microdilution broth method; assay type: functional
[38] = test system: Salmonella sp.; assay: Antibacterial activity against Salmonella sp. NCIM 2501 by microdilution broth method; assay type: functional
[39] = test system: Proteus vulgaris; assay: Antibacterial activity against Proteus vulgaris NCIM 2813 by microdilution broth method; assay type: functional
[40] = test system: Staphylococcus aureus; assay: Antibacterial activity against Staphylococcus aureus NCIM5021 by microdilution broth method; assay type: functional
[41] = test system: Escherichia coli; assay: Antibacterial activity against Escherichia coli NCIM 2931 by microdilution broth method; assay type: functional
[42] = test system: Escherichia coli; assay: Antibacterial activity against Escherichia coli assessed as zone of inhibition; assay type: functional
[43] = test system: Staphylococcus aureus; assay: Antibacterial activity against Staphylococcus aureus assessed as zone of inhibition; assay type: functional
[44] = test system: PC-3; assay: Antiproliferative activity against human PC-3 cells; assay type: functional, cell-based
[45] = test system: LNCaP; assay: Antiproliferative activity against human LNCaP cells; assay type: functional, cell-based

Chain of Cholinesterase (P06276 whole entry): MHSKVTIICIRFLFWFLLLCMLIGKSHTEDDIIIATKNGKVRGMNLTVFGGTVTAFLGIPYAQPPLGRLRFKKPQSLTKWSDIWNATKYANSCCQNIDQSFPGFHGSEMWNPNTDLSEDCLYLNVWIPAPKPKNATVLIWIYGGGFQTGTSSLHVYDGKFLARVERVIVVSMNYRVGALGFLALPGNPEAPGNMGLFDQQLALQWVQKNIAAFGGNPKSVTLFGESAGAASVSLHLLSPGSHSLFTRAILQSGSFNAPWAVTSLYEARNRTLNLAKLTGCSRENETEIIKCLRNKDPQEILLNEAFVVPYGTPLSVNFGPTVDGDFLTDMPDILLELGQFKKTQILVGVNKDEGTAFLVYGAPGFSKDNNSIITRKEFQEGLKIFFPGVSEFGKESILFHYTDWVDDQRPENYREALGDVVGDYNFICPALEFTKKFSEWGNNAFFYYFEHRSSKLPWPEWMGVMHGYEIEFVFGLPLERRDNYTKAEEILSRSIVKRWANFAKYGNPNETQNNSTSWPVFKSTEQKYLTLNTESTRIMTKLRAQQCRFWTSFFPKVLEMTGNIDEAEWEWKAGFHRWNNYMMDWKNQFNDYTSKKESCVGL
Chain of Acetylcholinesterase (P22303 whole entry): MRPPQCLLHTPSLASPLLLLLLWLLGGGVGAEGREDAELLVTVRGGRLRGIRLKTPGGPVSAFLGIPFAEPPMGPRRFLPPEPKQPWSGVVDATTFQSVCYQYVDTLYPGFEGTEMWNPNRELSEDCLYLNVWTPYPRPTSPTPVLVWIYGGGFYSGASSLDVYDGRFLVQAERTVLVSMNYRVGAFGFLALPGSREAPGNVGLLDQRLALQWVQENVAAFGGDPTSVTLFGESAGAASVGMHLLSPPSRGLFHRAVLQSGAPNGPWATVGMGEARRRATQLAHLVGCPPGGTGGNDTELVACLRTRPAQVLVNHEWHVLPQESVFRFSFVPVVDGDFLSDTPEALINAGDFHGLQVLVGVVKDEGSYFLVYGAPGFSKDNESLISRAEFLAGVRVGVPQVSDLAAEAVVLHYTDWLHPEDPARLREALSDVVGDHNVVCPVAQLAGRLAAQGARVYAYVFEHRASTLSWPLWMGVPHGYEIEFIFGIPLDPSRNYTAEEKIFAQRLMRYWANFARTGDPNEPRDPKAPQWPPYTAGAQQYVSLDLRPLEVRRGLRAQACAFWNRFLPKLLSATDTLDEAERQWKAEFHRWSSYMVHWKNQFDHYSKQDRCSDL

Q: What does the source list for `Cc1nn(-c2ccccc2)c2c1C1(C(=O)Nc3ccc(Br)cc31)c1c(C)nn(-c3ccccc3)c1O2`?
A: MIC [1]: 64 µg/mL (≈ 119 µM); MIC [2]: 256 µg/mL (≈ 475 µM)

Q: With `CCOC1=Nc2ccc(Br)cc2/C1=C\C(=O)c1ccccc1O` as the compound, how does the zone of inhibition at 25 µg/mL [3] read?
A: 11 mm

Q: And the zone of inhibition at 25 µg/mL [4]?
A: 11 mm

Q: Which results are given for `COc1cccc([C@@H]2[C@H](Cc3c[nH]c4ccccc34)NC3(C(=O)Nc4ccccc43)[C@@]23Cc2cc(OC)c(OC)cc2C3=O)c1` (some centres undefined)?
A: pIC50 [5]: 5.64; pIC50 [6]: 5.08

Q: Which results are given for `O=C1c2c(Cl)cccc2NC2(C(=O)Nc3ccc(Br)cc32)N1Nc1ccccc1` (centres undefined)?
A: MIC [7]: 2 µg/mL (≈ 4.26 µM); MIC [8]: 2 µg/mL (≈ 4.26 µM); MIC [9]: 8 µg/mL (≈ 17 µM); MIC [10]: 4 µg/mL (≈ 8.52 µM); MIC [11]: < 2 µg/mL; MIC [12]: < 2 µg/mL; MIC [13]: < 2 µg/mL; MIC [14]: 4 µg/mL (≈ 8.52 µM); MIC [15]: 4 µg/mL (≈ 8.52 µM); MIC [16]: < 2 µg/mL

Q: For `O=C(c1ccc(-c2ccc(F)cc2F)cc1)C1C(c2ccc(Cl)cc2)C2CCCN2C12C(=O)Nc1ccccc12` (centres undefined), which MIC [17] is on record?
A: 25 µg/mL (≈ 45 µM)

Q: What about the MIC [18] of the same compound?
A: 12.5 µg/mL (≈ 22.5 µM)

Q: What about the MIC [19] of the same compound?
A: 25 µg/mL (≈ 45 µM)

Q: Which results are given for `Cc1ccc(C2C3CCCN3C3(C(=O)Nc4ccccc43)C2C(=O)c2ccc(-c3ccc(F)cc3F)cc2)cc1` (centres undefined)?
A: MIC [17]: 25 µg/mL (≈ 46.8 µM); MIC [18]: 12.5 µg/mL (≈ 23.4 µM); MIC [19]: 25 µg/mL (≈ 46.8 µM)

Q: With `COc1cc2c(cc1OC)C(=O)[C@]1(C2)[C@H](c2cccc([N+](=O)[O-])c2)[C@H](Cc2c[nH]c3ccccc23)NC12C(=O)Nc1ccccc12` (some centres undefined) as the compound, how does the pIC50 [5] read?
A: 5.72

Q: And the pIC50 [6]?
A: 4.55

Q: Which “diameter of the inhibition zone (DIZ)” value [20] does the source give for `OC(Cn1cncn1)(Cn1cncn1)c1ccc(F)cc1F` [FLUCONAZOLE] here?
A: 24.1 mm

Q: And the “diameter of the inhibition zone (DIZ)” value [21]?
A: 28 mm

Q: What about the “diameter of the inhibition zone (DIZ)” value [22] of the same compound?
A: 30 mm

Q: What about the “diameter of the inhibition zone (DIZ)” value [23] of the same compound?
A: 25 mm

Q: And the MIC [24]?
A: 20 µg/mL (≈ 65.3 µM)

Q: And the MIC [25]?
A: 20 µg/mL (≈ 65.3 µM)

Q: What does the source list for `Cc1ccc([C@H]2[C@@]3(SC(=S)NC3=O)C3CCCN3[C@@]23C(=O)Nc2ccccc23)cc1` (some centres undefined)?
A: diameter of the inhibition zone (DIZ) [20]: 19 mm; diameter of the inhibition zone (DIZ) [21]: 27 mm; diameter of the inhibition zone (DIZ) [22]: 27 mm; diameter of the inhibition zone (DIZ) [23]: 18 mm

Q: With `O=C(c1ccc(OCCN2CCCC2)cc1)[C@H]1[C@H](c2ccccc2)C2CS[C@H](c3ccccc3)N2C12C(=O)Nc1ccc(F)cc12` (some centres undefined) as the compound, how does the pIC50 [26] read?
A: 5.24

Q: What about the pIC50 [27] of the same compound?
A: 5.27

Q: And the pIC50 [28]?
A: 5.21

Q: `CC(C)=CC(=O)[C@H]1[C@H](c2ccc(F)cc2)CN(C)[C@]12C(=O)N(C)c1ccccc12` was tested. Which pIC50 [29] did it give?
A: 5.14

Q: And the pIC50 [30]?
A: 4.72

Q: For `O=C1NC(=S)S[C@]12C1CCCN1[C@@]1(C(=O)Nc3ccccc31)[C@H]2c1ccccc1` (some centres undefined), which “diameter of the inhibition zone (DIZ)” value [20] is on record?
A: 14 mm

Q: And the “diameter of the inhibition zone (DIZ)” value [21]?
A: 25 mm

Q: What about the “diameter of the inhibition zone (DIZ)” value [22] of the same compound?
A: 24 mm

Q: And the “diameter of the inhibition zone (DIZ)” value [23]?
A: 16 mm

Q: For `O=C1c2c(Cl)cccc2NC2(C(=O)Nc3ccc([N+](=O)[O-])cc32)N1Nc1ccccc1` (centres undefined), which MIC [7] is on record?
A: 2 µg/mL (≈ 4.59 µM)

Q: What about the MIC [8] of the same compound?
A: 2 µg/mL (≈ 4.59 µM)

Q: And the MIC [9]?
A: 16 µg/mL (≈ 36.7 µM)

Q: What about the MIC [10] of the same compound?
A: 16 µg/mL (≈ 36.7 µM)

Q: And the MIC [11]?
A: 8 µg/mL (≈ 18.4 µM)

Q: What about the MIC [12] of the same compound?
A: 8 µg/mL (≈ 18.4 µM)

Q: What about the MIC [13] of the same compound?
A: < 2 µg/mL

Q: What about the MIC [14] of the same compound?
A: < 2 µg/mL

Q: And the MIC [15]?
A: 2 µg/mL (≈ 4.59 µM)

Q: And the MIC [16]?
A: < 2 µg/mL

Q: How did the pIC50 [26] turn out when `CC/C(=C(\c1ccccc1)c1ccc(OCCN(C)C)cc1)c1ccccc1` [TAMOXIFEN] was run?
A: 4.84

Q: And the pIC50 [31]?
A: 7.00

Q: And the pIC50 [28]?
A: 4.85

Q: For `O=C(O)c1cn(C2CC2)c2cc(N3CCNCC3)c(F)cc2c1=O` [CIPROFLOXACIN], which MIC [32] is on record?
A: 32 µg/mL (≈ 96.6 µM)

Q: And the MIC [33]?
A: 32 µg/mL (≈ 96.6 µM)

Q: What about the MIC [34] of the same compound?
A: 6.25 µg/mL (≈ 18.9 µM)

Q: And the MIC [35]?
A: 25 µg/mL (≈ 75.4 µM)

Q: What about the MIC [36] of the same compound?
A: 50 µg/mL (≈ 151 µM)

Q: What does the source list for `O=C1Nc2ccccc2[C@@]1(O)[C@@]1(OCc2ccc(Cl)cc2)C(=O)Nc2ccccc21`?
A: MIC [37]: 0.074 µg/mL (≈ 0.176 µM); MIC [38]: 0.074 µg/mL (≈ 0.176 µM); MIC [39]: 0.149 µg/mL (≈ 0.354 µM); MIC [40]: 0.149 µg/mL (≈ 0.354 µM); MIC [41]: 0.074 µg/mL (≈ 0.176 µM)

Q: For `CCOC1=Nc2ccccc2/C1=C\C(=O)c1ccc(Cl)cc1`, which “diameter of the inhibition zone (DIZ)” value [42] is on record?
A: 6 mm

Q: And the “diameter of the inhibition zone (DIZ)” value [43]?
A: 6 mm

Q: With `O=C1c2ccccc2C2Oc3c(c(=O)oc4ccccc34)C3(C(=O)Nc4ccc(Br)cc43)C12` (centres undefined) as the compound, how does the pIC50 [44] read?
A: 7.52

Q: And the pIC50 [45]?
A: 5.72

Q: How did the MIC [32] turn out when `C[C@H]1COc2c(N3CCN(C)CC3)c(F)cc3c(=O)c(C(=O)O)cn1c23.C[C@H]1COc2c(N3CCN(C)CC3)c(F)cc3c(=O)c(C(=O)O)cn1c23.O` [LEVOFLOXACIN] was run?
A: > 64 µg/mL

Q: What about the MIC [33] of the same compound?
A: > 64 µg/mL

Q: `CCOC1=Nc2ccccc2/C1=C\C(=O)c1ccccc1O` was tested. Which zone of inhibition at 25 µg/mL [3] did it give?
A: 10 mm

Q: And the zone of inhibition at 25 µg/mL [4]?
A: 11 mm
